Patent US4789736A, “Complexes of technetium-99m with propylene amine oximes” (Amersham International plc, priority 1985, dated 1988)

Assay: Animal biodistribution of Tc-99m complexes of ligands, no separation of stereoisomers (Example 22)
Format: in vivo, rats
Details: i.v. rats
Method: The ratio of diastereoisomers in the Tc-99m complexes used in this experiment is not known.
The results at 2 minutes and 1 hour p.i. are the mean of 3 animals.
The results at 2 hours p.i. are the mean of 2 animals.

Compound | % id/organ, Blood (2 min pi, mean of 3 animals) [% id/organ] | % id/organ, Brain (2 min pi, mean of 3 animals) [% id/organ] | % id/organ, Liver (2 min pi, mean of 3 animals) [% id/organ] | % id/organ, Blood (1 hr pi, mean of 3 animals) [% id/organ] | % id/organ, Brain (1 hr pi, mean of 3 animals) [% id/organ] | % id/organ, Liver (1 hr pi, mean of 3 animals) [% id/organ] | % id/organ, Heart (2 min pi, mean of 3 animals) [% id/organ] | % id/organ, Blood (2 hr pi, mean of 2 animals) [% id/organ] | % id/organ, Brain (2 hr pi, mean of 2 animals) [% id/organ] | % id/organ, Heart (2 hr pi, mean of 2 animals) [% id/organ] | % id/organ, Liver (2 hr pi, mean of 2 animals) [% id/organ] | % id/organ, Heart (1 hr pi, mean of 3 animals) [% id/organ]
CCCC(=NO)C(C)NCCCNC(C)C(CCC)=NO (stereo not shown) [Compound 5, 6,10-Diaza-5,11-dimethylpentadecane-4,12-dione bis oxime] | 10.5 | 0.8 | 18.0 | 2.8 | 0.6 | 12.1 |  |  |  |  |  | 
CCC(=NO)C(C)NCC(C)(C)CNC(C)C(CC)=NO (stereo not shown) [Compound 6, 5,9-Diaza-4,7,7,10-tetramethyltridecane-3,11-dione bis oxime] | 5.8 | 1.2 | 19.6 |  |  |  | 0.4 | 2.6 | 0.4 | 0.2 | 13.5 | 
CCC(CC)(CNC(C)C(C)=NO)CNC(C)C(C)=NO (stereo not shown) [Compound 7, 4,8-Diaza-6,6-diethyl-3,9-dimethylundecane-2,10-dione bis oxime] | 7.4 | 1.0 | 20.6 | 3.3 | 0.5 | 36.5 |  |  |  |  |  | 
CC(=NO)C(NCCCNC(C(C)=NO)c1ccccc1)c1ccccc1 (stereo not shown) [Compound 10, 4,8-Diaza-3,9-diphenylundecane-2,10-dione bis oxime] | 14.0 | 0.4 | 32.9 |  |  |  | 0.5 | 2.7 | 0.6 | 0.3 | 16.9 | 
CC(=NO)C(C)NCC(C)CNC(C)C(C)=NO (stereo not shown) [Compound 11, 4,8-Diaza-3,6,9-trimethylundecane-2,10-dione bis oxime] | 11.9 | 1.3 | 12.3 | 4.7 | 1.0 | 10.2 | 0.8 |  |  |  |  | 0.4
CC(=NO)C(C)NC(C)CC(C)NC(C)C(C)=NO (stereo not shown) [Compound 12, 4,8-Diaza-3,5,7,9-tetramethylundecane-2,10 bis oxime] | 8.6 | 1.0 | 23.9 | 6.0 | 0.9 | 19.7 | 0.5 |  |  |  |  | 0.3
CC(C)C(=NO)C(C)NCCCNC(C)C(=NO)C(C)C (stereo not shown) [Compound 13, 5,9-Diaza-2,4,10,12-tetramethyltridecane-3,11-dione bis oxime] | 15.2 | 0.5 | 15.9 | 7.2 | 0.2 | 12.5 | 0.6 |  |  |  |  | 0.2
